Assay results: PMC8697972, “New Auranofin Analogs with Antibacterial Properties against Burkholderia Clinical Isolates” (Antibiotics, 2021)
Like-named read-outs stand apart in the source and are kept apart here. Marks after values point to notes of the source that are not given here.

Legend:
[1] = test system: B. cenocepacia K56-2; assay type: cell-based, Burkholderia cenocepacia; conditions: B. cenocepacia K56-2; CAMHB, 18 h, 37 °C
[2] = test system: B. lata BCC6; assay type: cell-based, Burkholderia lata; conditions: B. lata BCC6
[3] = test system: B. contaminans MF16; assay type: cell-based, Burkholderia contaminans; conditions: B. contaminans MF16
[4] = test system: B. contaminans FFH-2050MA; assay type: cell-based, Burkholderia contaminans; conditions: B. contaminans FFH-2050MA
[5] = test system: B. dolosa CEP021; assay type: cell-based, Burkholderia dolosa; conditions: B. dolosa CEP021
[6] = test system: B. multivorans ATCC17616; assay type: cell-based, Burkholderia multivorans; conditions: B. multivorans ATCC17616
[7] = test system: B. cenocepacia 140485; assay type: cell-based, Burkholderia cenocepacia; conditions: B. cenocepacia 140485
[8] = test system: B. ubonensis LMG 20358; assay type: cell-based, Burkholderia ubonensis; conditions: B. ubonensis LMG 20358
[9] = test system: B. contaminans FFH-4004; assay type: cell-based, Burkholderia contaminans; conditions: B. contaminans FFH-4004
[10] = test system: B. mallei China 5 (NBL 4); assay type: cell-based, Burkholderia mallei
[11] = test system: B. mallei Ivan (NCTC 10230); assay type: cell-based, Burkholderia mallei
[12] = test system: B. mallei China 7 (NBL 7); assay type: cell-based, Burkholderia mallei
[13] = test system: B. pseudomallei 1710b; assay type: cell-based, Burkholderia pseudomallei
[14] = test system: B. pseudomallei MSHR465a; assay type: cell-based, Burkholderia pseudomallei
[15] = test system: B. pseudomallei HBPUB10134a; assay type: cell-based, Burkholderia pseudomallei
[16] = test system: B. pseudomallei MSHR305; assay type: cell-based, Burkholderia pseudomallei
[17] = test system: Stenotrophomonas maltophilia DH57; assay type: cell-based
[18] = test system: Stenotrophomonas maltophilia K279a; assay type: cell-based
[19] = test system: Escherichia coli 120955; assay type: cell-based
[20] = test system: Escherichia vulneris CEP511; assay type: cell-based
[21] = test system: Klebsiella pneumoniae 120310; assay type: cell-based
[22] = test system: Acinetobacter baumannii ATCC 17978; assay type: cell-based
[23] = test system: Staphylococcus aureus ATCC 27700; assay type: cell-based
[24] = test system: Staphylococcus aureus 107094; assay type: cell-based
[25] = test system: Achromobacter xylosoxidans ACH03; assay type: cell-based
[26] = test system: Burkholderia cenocepacia K56-2; experiment: MBC (minimum bactericidal concentration); assay type: cell-based; conditions: MBC determined from exponential time kill curve
[27] = test system: Stenotrophomonas maltophilia K279a; experiment: MBC (minimum bactericidal concentration); assay type: cell-based
[28] = test system: B. cenocepacia K56-2 persister cells; experiment: Time kill of persister cells generated with ciprofloxacin; assay type: cell-based, Burkholderia cenocepacia; conditions: for further reduction of ciprofloxacin-generated persister population: enriched persister population; for killing of ciprofloxacin-generated persister cells: in PBS, 3 h, MS-40S/MS-40 2× and 4× MIC, ciprofloxacin 5× MIC
[29] = test system: B. cenocepacia K56-2; experiment: In vivo antibiotic activity in infected C. elegans; conditions: C. elegans infected with B. cenocepacia K56-2, data not shown
[30] = test system: B. cenocepacia K56-2; experiment: In vivo antibiotic activity in infected G. mellonella; conditions: G. mellonella infected with B. cenocepacia K56-2, data not shown
[31] = test system: B. cenocepacia K56-2; experiment: MIC in 50% human serum; assay type: cell-based, Burkholderia cenocepacia
[32] = test system: human A549 cells; conditions: cited from earlier work
[33] = test system: Galleria mellonella larvae; experiment: Galleria toxicity; conditions: for percent survival of Galleria larvae: 10 mg/kg
[34] = test system: B. cenocepacia K56-2; experiment: Persister frequency assay; conditions: 24 h
[35] = test system: Stenotrophomonas maltophilia DH57; experiment: MBC (minimum bactericidal concentration)
[36] = test system: Escherichia coli 120955; experiment: MBC (minimum bactericidal concentration)
[37] = test system: Escherichia vulneris CEP511; experiment: MBC (minimum bactericidal concentration)
[38] = test system: Klebsiella pneumoniae 120310; experiment: MBC (minimum bactericidal concentration)
[39] = test system: Acinetobacter baumannii ATCC 17978; experiment: MBC (minimum bactericidal concentration)
[40] = test system: Staphylococcus aureus ATCC 27700; experiment: MBC (minimum bactericidal concentration)
[41] = test system: Staphylococcus aureus 107094; experiment: MBC (minimum bactericidal concentration)
[42] = test system: Achromobacter xylosoxidans ACH03; experiment: MBC (minimum bactericidal concentration)
[43] = test system: Burkholderia cenocepacia K56-2; experiment: Time kill assays (exponential and stationary phase); conditions: for killing of stationary (non-replicating) phase cells / killing of exponential (replicating) phase cells: time kill, 1×, 2×, 6 h; for killing of stationary (non-replicating) phase cells: 4× MIC (DOX 4× MIC)
[44] = test system: C. elegans DH26; conditions: for Percent survival of C. elegans: 24 h

C[PH](C)(C)[Au][S]CCO [MS-40, 2-mercaptoethanolatotrimethylphosphine gold(I)]
MIC [1]: 4 µg/mL | MIC [2]: 8 µg/mL | MIC [3]: 8 µg/mL | MIC [4]: 4 µg/mL | MIC [5]: 16 µg/mL | MIC [6]: 8 µg/mL | MIC [7]: 8 µg/mL | MIC [8]: 16 µg/mL | MIC [9]: 8 µg/mL | MIC [10]: 0.12 µg/mL | MIC [11]: 0.12 µg/mL | MIC [12]: 0.25 µg/mL | MIC [13]: 4 µg/mL | MIC [14]: 4 µg/mL | MIC [15]: 4 µg/mL | MIC [16]: 2 µg/mL | MIC [17]: 1 µg/mL | MIC [18]: 2 µg/mL | MIC [19]: 4 µg/mL | MIC [20]: 2 µg/mL | MIC [21]: 2 µg/mL | MIC [22]: 2 µg/mL | MIC [23]: 0.25 µg/mL | MIC [24]: 0.25 µg/mL | MIC [25]: 8 µg/mL | MBC [26]: 8 * μg/mL | MBC [27]: 2 µg/mL | further reduction of ciprofloxacin-generated persister population [28]: 1–2 log10 CFU/mL | killing of ciprofloxacin-generated persister cells [28]: killed to a concentration below/close to the limit of detection | in vivo antibiotic activity [29]: did not observe in vivo antibiotic activity | in vivo antibiotic activity [30]: did not observe in vivo antibiotic activity | MIC in the presence of 50% human serum [31]: 128 µg/mL | toxicity in human A549 cells compared with auranofin [32]: lower toxicity | Galleria Survival ([33]; 1.0 mg/kg, 24 h): 100% | Galleria Survival ([33]; 1.0 mg/kg, 48 h): 96.7% | Galleria Survival ([33]; 1.0 mg/kg, 72 h): 96.7% | Galleria Survival ([33]; 2.0 mg/kg, 24 h): 90.0% | Galleria Survival ([33]; 2.0 mg/kg, 48 h): 80.0% | Galleria Survival ([33]; 2.0 mg/kg, 72 h): 80.0% | Galleria Survival ([33]; 5.0 mg/kg, 24 h): 96.7% | Galleria Survival ([33]; 5.0 mg/kg, 48 h): 93.3% | Galleria Survival ([33]; 5.0 mg/kg, 72 h): 90.0% | percent survival of Galleria larvae [33]: ≥ 80% | Galleria Survival ([33]; 10.0 mg/kg, 24 h): 90.0% | Galleria Survival ([33]; 10.0 mg/kg, 48 h): 83.3% | Galleria Survival ([33]; 10.0 mg/kg, 72 h): 80.0% | persister frequency (percent survival) ([34]; 5× MIC): No persisters | persister frequency (percent survival) ([34]; 10× MIC): No persisters | MBC [35]: 4 µg/mL | MBC [36]: 32 µg/mL | MBC [37]: 2 µg/mL | MBC [38]: 4 µg/mL | MBC [39]: 4 µg/mL | MBC [40]: 2 µg/mL | MBC [41]: 1 µg/mL | MBC [42]: 8 µg/mL | killing of stationary (non-replicating) phase cells [43]: bactericidal | killing of exponential (replicating) phase cells ([43]; 4× MIC): bactericidal

CC(O)C[S][Au-][P+](C)(C)C (stereo not drawn) [MS-40S]
MIC [1]: 8 µg/mL | MIC [2]: 8 µg/mL | MIC [3]: 8 µg/mL | MIC [4]: 16 µg/mL | MIC [5]: 32 µg/mL | MIC [6]: 16 µg/mL | MIC [7]: 16 µg/mL | MIC [8]: 16 µg/mL | MIC [9]: 16 µg/mL | MIC [10]: 0.12 µg/mL | MIC [11]: 0.12 µg/mL | MIC [12]: 0.25 µg/mL | MIC [13]: 4 µg/mL | MIC [14]: 4 µg/mL | MIC [15]: 2 µg/mL | MIC [17]: 2 µg/mL | MIC [18]: 2 µg/mL | MIC [19]: 4 µg/mL | MIC [20]: 4 µg/mL | MIC [21]: 4 µg/mL | MIC [22]: 2 µg/mL | MIC [23]: 0.5 µg/mL | MIC [24]: 0.25 µg/mL | MIC [25]: 16 µg/mL | MBC [26]: >32 * μg/mL | MBC [27]: 8 µg/mL | further reduction of ciprofloxacin-generated persister population [28]: 1–2 log10 CFU/mL | killing of ciprofloxacin-generated persister cells [28]: killed to a concentration below/close to the limit of detection | in vivo antibiotic activity [29]: did not observe in vivo antibiotic activity | in vivo antibiotic activity [30]: did not observe in vivo antibiotic activity | MIC in the presence of 50% human serum [31]: 128 µg/mL | Percent survival of C. elegans ([44]; 4 μg/mL): 100% | Percent survival of C. elegans ([44]; 8 μg/mL): 100% | Percent survival of C. elegans ([44]; 16 μg/mL): 100% | Percent survival of C. elegans ([44]; 32 μg/mL): 100% | Percent survival of C. elegans ([44]; 64 μg/mL): 100% | Percent survival of C. elegans ([44]; 128 μg/mL): 97.6% | Percent survival of C. elegans ([44]; 256 μg/mL): 85.7% | Survival100/MIC Ratio ([44]; highest concentration with 100 percent survival divided by the compound's MIC): 8 | Galleria Survival ([33]; 1.0 mg/kg, 24 h): 96.7% | Galleria Survival ([33]; 1.0 mg/kg, 48 h): 86.7% | Galleria Survival ([33]; 1.0 mg/kg, 72 h): 86.7% | Galleria Survival ([33]; 2.0 mg/kg, 24 h): 83.3% | Galleria Survival ([33]; 2.0 mg/kg, 48 h): 83.3% | Galleria Survival ([33]; 2.0 mg/kg, 72 h): 83.3% | Galleria Survival ([33]; 5.0 mg/kg, 24 h): 93.3% | Galleria Survival ([33]; 5.0 mg/kg, 48 h): 86.7% | Galleria Survival ([33]; 5.0 mg/kg, 72 h): 86.7% | percent survival of Galleria larvae [33]: ≥ 80% | Galleria Survival ([33]; 10.0 mg/kg, 24 h): 90.0% | Galleria Survival ([33]; 10.0 mg/kg, 48 h): 76.7% | Galleria Survival ([33]; 10.0 mg/kg, 72 h): 76.7% | persister frequency (percent survival) ([34]; 5× MIC): very low persister frequency | persister frequency (percent survival) ([34]; 10× MIC): no persisters | MBC [35]: 8 µg/mL | MBC [36]: 64 µg/mL | MBC [37]: 4 µg/mL | MBC [38]: 8 µg/mL | MBC [39]: 8 µg/mL | MBC [40]: 2 µg/mL | MBC [41]: 1 µg/mL | MBC [42]: 32 µg/mL | reduction of the culture in time kill ([43]; 4× MIC, exponential phase): approximately three | killing of stationary (non-replicating) phase cells [43]: bactericidal | killing of exponential (replicating) phase cells ([43]; 4× MIC): bactericidal
